# Reference: patent US10058550B2, “Methods of treating heart failure” (priority 2015, dated 2018)
# Biological target: human APJ receptor (Homo sapiens (Human), UniProt P35414)
# Experiment: biochemical
# Type: biochemical
# Details: read-out: Activity hAPJ SPA EC50 IP
# Summary of the method: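 Membranes from CHO cells stably expressing cloned human APJ were incubated with WGA SPA beads in 20 mM HEPES pH 7.5, 5 mM MgCl2, 0.1% BSA, 200 mM NaCl and 3 μM GDP. Reaction started with 0.2 nM [35S]GTPγS ± ligands, 90 min at RT. EC50 obtained by non-linear regression as mean of independent experiments.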
# Sequence of human APJ receptor (P35414 whole entry): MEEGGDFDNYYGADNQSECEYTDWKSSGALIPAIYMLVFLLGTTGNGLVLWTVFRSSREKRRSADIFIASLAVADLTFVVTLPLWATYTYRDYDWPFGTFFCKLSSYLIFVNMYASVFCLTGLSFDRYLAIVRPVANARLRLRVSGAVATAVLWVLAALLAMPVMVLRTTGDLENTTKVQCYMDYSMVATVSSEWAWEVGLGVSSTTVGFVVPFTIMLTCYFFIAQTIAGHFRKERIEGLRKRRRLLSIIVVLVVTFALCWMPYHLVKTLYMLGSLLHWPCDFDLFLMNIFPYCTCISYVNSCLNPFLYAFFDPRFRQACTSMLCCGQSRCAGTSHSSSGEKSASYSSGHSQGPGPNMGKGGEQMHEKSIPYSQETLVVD
row,Structure (SMILES),EC50
1,"COc1cccc(OC)c1-n1c(NS(=O)(=O)C[C@H](O)c2ccc(C#N)cc2S(C)(=O)=O)nnc1-c1cncc(C)c1 (single isomer, unassigned) [Example 491.0, (2R)-2-(4-cyano-2-(methylsulfonyl)phenyl)-N-(4-(2,6-dimethoxyphenyl)-5-(5-methyl-3-pyridinyl)-4H-1,2,4-triazol-3-yl)-2-hydroxyethanesulfonamide or (2S)-2-(4-cyano-2-(methylsulfonyl)phenyl)-N-(4-(2,6-dimethoxyphenyl)-5-(5-methyl-3-pyridinyl)-4H-1,2,4-triazol-3-yl)-2-hydroxyethanesulfonamide]",0.33 nM
2,"COc1cccc(OC)c1-n1c(NS(=O)(=O)C[C@H](O)c2ccc(C#N)cc2S(C)(=O)=O)nnc1-c1cncc(C)c1 (single isomer, unassigned) [Example 492.0, (2R)-2-(4-cyano-2-(methylsulfonyl)phenyl)-N-(4-(2,6-dimethoxyphenyl)-5-(5-methyl-3-pyridinyl)-4H-1,2,4-triazol-3-yl)-2-hydroxyethanesulfonamide or (2S)-2-(4-cyano-2-(methylsulfonyl)phenyl)-N-(4-(2,6-dimethoxyphenyl)-5-(5-methyl-3-pyridinyl)-4H-1,2,4-triazol-3-yl)-2-hydroxyethanesulfonamide]",0.61 nM
3,"COc1cccc(OC)c1-n1c(NS(=O)(=O)[C@H](C)[C@@H](OC)c2ccc(Cl)cn2)nnc1-c1cccnc1 (single isomer, unassigned) [Example 530.0, (1S,2R)-1-(5-chloro-2-pyridinyl)-N-(4-(2,6-dimethoxyphenyl)-5-(3-pyridinyl)-4H-1,2,4-triazol-3-yl)-1-methoxy-2-propanesulfonamide or (1R,2S)-1-(5-chloro-2-pyridinyl)-N-(4-(2,6-dimethoxyphenyl)-5-(3-pyridinyl)-4H-1,2,4-triazol-3-yl)-1-methoxy-2-propanesulfonamide]",48.5 nM
4,"COc1cccc(OC)c1-n1c(NS(=O)(=O)[C@@H](C)[C@@](C)(F)c2ncc(C#N)cn2)nnc1-c1cncc(C)c1 (single isomer, unassigned) [Example 537.0]",57 nM
5,"COc1cccc(OC)c1-n1c(NS(=O)(=O)[C@@H](C)[C@@](C)(F)c2ncc(C#N)cn2)nnc1-c1cncc(C)c1 (single isomer, unassigned) [Example 538.0]",4.5 nM
6,"COc1cccc(OC)c1-n1c(NS(=O)(=O)[C@H](C)[C@@H](OC)c2ccc(C#N)cn2)nnc1-c1cncc(C)c1 (single isomer, unassigned) [Example 552.0]",0.28 nM
7,"COc1cccc(OC)c1-n1c(NS(=O)(=O)[C@H](C)[C@@H](OC)c2ccc(C#N)cn2)nnc1-c1cncc(C)c1 (single isomer, unassigned) [Example 553.0]",41 nM
8,"COc1cccc(OC)c1-n1c(NS(=O)(=O)[C@H](C)[C@@H](OC)c2ccc(C#N)cn2)nnc1-c1cncc(C)c1 (single isomer, unassigned) [Example 554.0]",2.7 nM
9,"COc1cccc(OC)c1-n1c(NS(=O)(=O)[C@H](C)[C@@H](OC)c2ccc(C#N)cn2)nnc1-c1cncc(C)c1 (single isomer, unassigned) [Example 555.0]",41 nM
10,"COc1cccc(OC)c1-n1c(NS(=O)(=O)[C@H](C)[C@@H](OC)c2ncc(Cl)cn2)nnc1-c1cncc(C)c1 (single isomer, unassigned) [Example 558.0]",30 nM
11,"COc1cccc(OC)c1-n1c(NS(=O)(=O)[C@H](C)[C@@H](OC)c2ncc(Cl)cn2)nnc1-c1cncc(C)c1 (single isomer, unassigned) [Example 559.0]",120 nM
12,"COc1cccc(OC)c1-n1c(NS(=O)(=O)[C@H](C)[C@@H](OC)c2ncc(Cl)cn2)nnc1-c1cncc(C)c1 (single isomer, unassigned) [Example 560.0]",0.88 nM
13,"CCO[C@@H](c1cnc(C)cn1)[C@@H](C)S(=O)(=O)Nc1nnc(-c2cncc(C)c2)n1-c1c(OC)cccc1OC (single isomer, unassigned) [Example 565.0, (1S,2R)—N-(4-(2,6-dimethoxyphenyl)-5-(5-methyl-3-pyridinyl)-4H-1,2,4-triazol-3-yl)-1-ethoxy-1-(5-methyl-2-pyrazinyl)-2-propanesulfonamide or (1R,2S)—N-(4-(2,6-dimethoxyphenyl)-5-(5-methyl-3-pyridinyl)-4H-1,2,4-triazol-3-yl)-1-ethoxy-1-(5-methyl-2-pyrazinyl)-2-propanesulfonamide]",100 nM
14,"CCO[C@@H](c1cnc(C)cn1)[C@@H](C)S(=O)(=O)Nc1nnc(-c2cncc(C)c2)n1-c1c(OC)cccc1OC (single isomer, unassigned) [Example 566.0, (1S,2R)—N-(4-(2,6-dimethoxyphenyl)-5-(5-methyl-3-pyridinyl)-4H-1,2,4-triazol-3-yl)-1-ethoxy-1-(5-methyl-2-pyrazinyl)-2-propanesulfonamide or (1R,2S)—N-(4-(2,6-dimethoxyphenyl)-5-(5-methyl-3-pyridinyl)-4H-1,2,4-triazol-3-yl)-1-ethoxy-1-(5-methyl-2-pyrazinyl)-2-propanesulfonamide]",62 nM
15,"COc1cccc(OC)c1-n1c(NS(=O)(=O)[C@H](C)[C@@H](O)c2cnc(C)cn2)nnc1-c1cncc(C)c1 (single isomer, unassigned) [Example 568.0, (1S,2R)—N-(4-(2,6-dimethoxyphenyl)-5-(5-methyl-3-pyridinyl)-4H-1,2,4-triazol-3-yl)-1-hydroxy-1-(5-methyl-2-pyrazinyl)-2-propanesulfonamide or (1R,2S)—N-(4-(2,6-dimethoxyphenyl)-5-(5-methyl-3-pyridinyl)-4H-1,2,4-triazol-3-yl)-1-hydroxy-1-(5-methyl-2-pyrazinyl)-2-propanesulfonamide]",7.1 nM
16,"COc1cccc(OC)c1-n1c(NS(=O)(=O)[C@H](C)[C@@H](O)c2cnc(C)cn2)nnc1-c1cncc(C)c1 (single isomer, unassigned) [Example 569.0, (1S,2R)—N-(4-(2,6-dimethoxyphenyl)-5-(5-methyl-3-pyridinyl)-4H-1,2,4-triazol-3-yl)-1-hydroxy-1-(5-methyl-2-pyrazinyl)-2-propanesulfonamide or (1R,2S)—N-(4-(2,6-dimethoxyphenyl)-5-(5-methyl-3-pyridinyl)-4H-1,2,4-triazol-3-yl)-1-hydroxy-1-(5-methyl-2-pyrazinyl)-2-propanesulfonamide]",0.26 nM
17,"COc1cccc(-c2nnc(NS(=O)(=O)[C@@H](C)[C@H](O)c3cnc(C)cn3)n2-c2c(OC)cccc2OC)n1 (single isomer, unassigned) [Example 577.0, (1R,2S)—N-(4-(2,6-dimethoxyphenyl)-5-(6-methoxy-2-pyridinyl)-4H-1,2,4-triazol-3-yl)-1-hydroxy-1-(5-methyl-2-pyrazinyl)-2-propanesulfonamide or (1S,2R)—N-(4-(2,6-dimethoxyphenyl)-5-(6-methoxy-2-pyridinyl)-4H-1,2,4-triazol-3-yl)-1-hydroxy-1-(5-methyl-2-pyrazinyl)-2-propanesulfonamide]",0.24 nM
18,"COc1cccc(-c2nnc(NS(=O)(=O)[C@@H](C)[C@H](O)c3cnc(C)cn3)n2-c2c(OC)cccc2OC)n1 (single isomer, unassigned) [Example 578.0, (1R,2S)—N-(4-(2,6-dimethoxyphenyl)-5-(6-methoxy-2-pyridinyl)-4H-1,2,4-triazol-3-yl)-1-hydroxy-1-(5-methyl-2-pyrazinyl)-2-propanesulfonamide or (1S,2R)—N-(4-(2,6-dimethoxyphenyl)-5-(6-methoxy-2-pyridinyl)-4H-1,2,4-triazol-3-yl)-1-hydroxy-1-(5-methyl-2-pyrazinyl)-2-propanesulfonamide]",2.7 nM
19,"COc1cccc(-c2nnc(NS(=O)(=O)[C@@H](C)[C@@H](O)c3ncc(C)cn3)n2-c2c(OC)cccc2OC)n1 (single isomer, unassigned) [Example 583.0]",0.19 nM
20,"CCO[C@@H](c1ncc(Cl)cn1)[C@H](C)S(=O)(=O)Nc1nnc(-c2cncc(C)c2)n1-c1c(OC)cccc1OC (single isomer, unassigned) [Example 609.0]",9.4 nM
21,"CCO[C@@H](c1ncc(Cl)cn1)[C@H](C)S(=O)(=O)Nc1nnc(-c2cncc(C)c2)n1-c1c(OC)cccc1OC (single isomer, unassigned) [Example 611.0]",0.19 nM
22,"CCO[C@@H](c1ncc(Cl)cn1)[C@H](C)S(=O)(=O)Nc1nnc(-c2cncc(C)c2)n1-c1c(OC)cccc1OC (single isomer, unassigned) [Example 612.0]",13 nM
23,"COc1cccc(OC)c1-n1c(NS(=O)(=O)[C@@H](C)[C@H](OC)c2ccc(F)cc2C#N)nnc1-c1cncc(C)c1 (single isomer, unassigned) [Example 623.0]",130 nM
24,"COc1cccc(OC)c1-n1c(NS(=O)(=O)[C@@H](C)[C@@H](OC(C)C)c2ncc(C)cn2)nnc1-c1cccnc1 (single isomer, unassigned) [Example 627.0, (1R,2R)-N-(4-(2,6-dimethoxyphenyl)-5-(pyridin-3-yl)-4H-1,2,4-triazol-3-yl)-1-isopropoxy-1-(5-methylpyrimidin-2-yl)propane-2-sulfonamide or (1S,2S)-N-(4-(2,6-dimethoxyphenyl)-5-(pyridin-3-yl)-4H-1,2,4-triazol-3-yl)-1-isopropoxy-1-(5-methylpyrimidin-2-yl)propane-2-sulfonamide]",1.1 nM
25,"COc1cccc(OC)c1-n1c(NS(=O)(=O)[C@@H](C)[C@@H](C)n2cc(C)cn2)nnc1-c1cncc(C)c1 (single isomer, unassigned) [Example 650.0]",39 nM
26,"COc1cccc(OC)c1-n1c(NS(=O)(=O)[C@@H](C)[C@@H](C)n2cc(C)cn2)nnc1-c1cncc(C)c1 (single isomer, unassigned) [Example 651.0]",85 nM
27,"COc1cccc(OC)c1-n1c(NS(=O)(=O)[C@@H](C)[C@@H](C)n2cc(C)cn2)nnc1-c1cncc(C)c1 (single isomer, unassigned) [Example 652.0]",0.43 nM
